Results reported in patent US9987276B2 (Celgene CAR LLC, priority 2008, dated 2018).
Entries after “also recorded” stand apart in the source; their conditions may differ.

Legend:
BTK = BTK (Homo sapiens (Human), UniProt Q06187); assay: BTK Ramos cellular assay (PLCγ2 phosphorylation); type: cell-based; details: Ramos cells, 1 hour compound, anti-IgM stimulation, p-PLCγ2; read-out: BTK Inhibition (IC50), BTK Ramos cellular inhibition
TEC kinase = TEC kinase (Homo sapiens (Human), UniProt P42680); assay: Mass spectrometry for TEC kinase (tryptic digest); type: binding; details: 3 hrs at 10× excess
Method: TEC kinase (45 pmols; Invitrogen) was incubated with (I-2) (450 pmols) for 3 hrs at 10× excess prior to tryptic digestion. Iodoacetamide was used as the alkylating agent after compound incubation. […] For tryptic digests a 5 ul aliquot (7.5 pmols) was diluted with 15 ul of 0.1% TFA prior to micro C18 Zip Tipping directly onto the MALDI target using alpha cyano-4-hydroxy cinnamic acid as the matrix (5 mg/ml in 0.1% TFA:Acetonitrile 50:50).
As depicted in FIG. 6, the expected peptide ([…]) to be modified was immediately evident after reaction with I-2 (MI mass of 359.17 Da) at MH+ of 1294.72. The peptide was also quite evident in the control sample as modified by Iodacetamide at MH+ of 992.56. […] There was no evidence of other modified peptides.
The fragmentation spectra of the 360.17 peak did show diagnostic fragments that were apparent in the PSD spectra of the modified peptide at 1294.72 (See FIG. 6).
To further verify the presence of the modified peptides, both the iodoacetamide labeled (992.56) and I-2 labeled (1294.72) were subjected to PSD (MS/MS) analysis. After a database search of the NCBI nr Homo sapien database using Mascot MS/MS Ion Search program the top match was the expected peptide in both cases.
For tryptic digests the instrument was set in Reflectron mode with a pulsed extraction setting of 2200. Calibration was done using the Laser Biolabs Pep Mix standard ([…], 1296.69, 1672.92, 2093.09, 2465.20). For CID/PSD analysis the peptide was selected using cursors to set ion gate timing and fragmentation occurred at a laser power about 20% higher and He was used as the collision gas for CID. Calibration for fragments was done using the P14R fragmentation calibration for the Curved field Reflectron.
TEC kinase (45 pmols; Invitrogen) was incubated with (I-4) (450 pmols) for 3 hrs at 10× excess prior to tryptic digestion. Iodoacetamide was used as the alkylating agent after compound incubation. […]

ITK = ITK (Homo sapiens (Human), UniProt Q08881); assay: Omnia assay for potency assessment against active forms of ITK kinase; type: biochemical; details: [ITK]=10 nM, [ATP]=25, [Y6-Sox]=10 μM; read-out: ITK Inhibition
Method: [ITK]=10 nM, [ATP]=25 [Y6-Sox]=10 μM (ATP KMapp=33 μM).

BMX = BMX (Homo sapiens (Human), UniProt P51813); assay: Omnia assay for potency assessment against active forms of BMX kinase; type: biochemical; details: [BMX]=2.5 nM, [ATP]=100 μM, [Y5-Sox]=7.5 μM; read-out: BMX Inhibition
Method: Briefly, 10× stocks of EGFR-WT (PV3872) from Invitrogen and EGFR-T790M/L858R (40350) from BPS Bioscience, San Diego, Calif., 1.13×ATP (AS001A) and appropriate Tyr-Sox conjugated peptide substrates (KCZ1001) were prepared in 1× kinase reaction buffer consisting of 20 mM Tris, pH 7.5, 5 mM MgCl2, 1 mM EGTA, 5 mM β-glycerophosphate, 5% glycerol (10× stock, KB002A) and 0.2 mM DTT (DS001A).
This example describes continuous-read kinase assays to measure inherent potency of compound against active forms of BMX enzymes as described in Example 251 above except that the modified BMX-optimized reagent conditions are:
[BMX]=2.5 nM, [ATP]=100 μM, [Y5-Sox]=7.5 μM (ATP KMapp=107 μM).

EGFR-WT = EGFR-WT (Homo sapiens (Human), UniProt P00533); assay: Omnia assay for potency assessment against EGFR (WT); details: read-out: EGFR (wild type inhibition); EGFR wild type
EGFR-T790M/L858R = EGFR-T790M/L858R (Homo sapiens (Human), UniProt P00533, L858R/T790M); assay: Omnia assay for potency assessment against EGFR (T790M/L858R); details: read-out: EGFR (T790M/L858R); EGFR mutant T790M/L858R
Chain of EGFR-T790M/L858R (P00533 25-1210 T790M/L858R): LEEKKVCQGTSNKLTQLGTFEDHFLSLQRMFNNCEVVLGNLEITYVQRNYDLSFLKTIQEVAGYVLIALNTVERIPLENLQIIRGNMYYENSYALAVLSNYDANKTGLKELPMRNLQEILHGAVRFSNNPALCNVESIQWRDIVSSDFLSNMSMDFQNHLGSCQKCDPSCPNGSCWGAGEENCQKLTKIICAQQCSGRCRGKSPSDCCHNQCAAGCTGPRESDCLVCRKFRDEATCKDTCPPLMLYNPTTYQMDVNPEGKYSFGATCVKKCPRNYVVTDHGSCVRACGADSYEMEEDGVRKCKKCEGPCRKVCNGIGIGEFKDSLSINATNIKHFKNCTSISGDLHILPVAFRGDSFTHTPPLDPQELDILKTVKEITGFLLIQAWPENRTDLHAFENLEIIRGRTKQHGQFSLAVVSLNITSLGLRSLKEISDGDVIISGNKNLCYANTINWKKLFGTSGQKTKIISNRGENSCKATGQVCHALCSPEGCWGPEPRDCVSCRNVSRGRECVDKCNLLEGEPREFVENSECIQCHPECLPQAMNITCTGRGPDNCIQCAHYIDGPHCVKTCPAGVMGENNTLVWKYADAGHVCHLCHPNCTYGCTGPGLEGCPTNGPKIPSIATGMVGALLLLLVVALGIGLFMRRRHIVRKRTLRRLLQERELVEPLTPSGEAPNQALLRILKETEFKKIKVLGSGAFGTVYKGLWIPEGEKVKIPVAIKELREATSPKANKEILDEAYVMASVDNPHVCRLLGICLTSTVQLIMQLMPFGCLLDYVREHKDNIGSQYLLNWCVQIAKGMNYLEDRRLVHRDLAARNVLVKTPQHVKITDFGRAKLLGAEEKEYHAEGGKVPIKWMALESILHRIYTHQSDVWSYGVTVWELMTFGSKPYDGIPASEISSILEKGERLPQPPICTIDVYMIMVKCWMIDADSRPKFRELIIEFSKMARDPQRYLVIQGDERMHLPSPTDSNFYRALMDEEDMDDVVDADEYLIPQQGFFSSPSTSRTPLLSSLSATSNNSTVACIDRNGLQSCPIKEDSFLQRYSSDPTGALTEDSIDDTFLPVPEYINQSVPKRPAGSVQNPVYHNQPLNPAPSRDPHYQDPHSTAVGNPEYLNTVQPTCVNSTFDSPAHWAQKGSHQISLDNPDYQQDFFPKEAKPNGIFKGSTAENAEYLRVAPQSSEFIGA

Chain of TEC kinase (P42680 whole entry): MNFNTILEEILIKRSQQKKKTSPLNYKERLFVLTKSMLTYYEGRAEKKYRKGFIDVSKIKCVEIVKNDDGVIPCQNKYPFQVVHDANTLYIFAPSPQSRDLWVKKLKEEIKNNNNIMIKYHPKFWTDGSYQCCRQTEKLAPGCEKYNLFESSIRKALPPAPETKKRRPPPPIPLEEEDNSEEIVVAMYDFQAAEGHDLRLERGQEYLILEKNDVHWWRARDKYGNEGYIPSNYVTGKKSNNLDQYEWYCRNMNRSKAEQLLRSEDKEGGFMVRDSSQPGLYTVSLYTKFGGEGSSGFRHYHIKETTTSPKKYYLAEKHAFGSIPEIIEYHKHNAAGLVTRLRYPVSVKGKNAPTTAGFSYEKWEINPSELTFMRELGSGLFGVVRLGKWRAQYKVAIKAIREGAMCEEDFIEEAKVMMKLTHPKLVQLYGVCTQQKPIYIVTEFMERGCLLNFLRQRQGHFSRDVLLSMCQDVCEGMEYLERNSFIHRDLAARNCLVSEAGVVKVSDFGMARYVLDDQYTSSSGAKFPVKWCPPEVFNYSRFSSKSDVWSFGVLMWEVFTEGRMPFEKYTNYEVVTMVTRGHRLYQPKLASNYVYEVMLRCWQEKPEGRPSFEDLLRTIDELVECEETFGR
Chain of BTK (Q06187 whole entry): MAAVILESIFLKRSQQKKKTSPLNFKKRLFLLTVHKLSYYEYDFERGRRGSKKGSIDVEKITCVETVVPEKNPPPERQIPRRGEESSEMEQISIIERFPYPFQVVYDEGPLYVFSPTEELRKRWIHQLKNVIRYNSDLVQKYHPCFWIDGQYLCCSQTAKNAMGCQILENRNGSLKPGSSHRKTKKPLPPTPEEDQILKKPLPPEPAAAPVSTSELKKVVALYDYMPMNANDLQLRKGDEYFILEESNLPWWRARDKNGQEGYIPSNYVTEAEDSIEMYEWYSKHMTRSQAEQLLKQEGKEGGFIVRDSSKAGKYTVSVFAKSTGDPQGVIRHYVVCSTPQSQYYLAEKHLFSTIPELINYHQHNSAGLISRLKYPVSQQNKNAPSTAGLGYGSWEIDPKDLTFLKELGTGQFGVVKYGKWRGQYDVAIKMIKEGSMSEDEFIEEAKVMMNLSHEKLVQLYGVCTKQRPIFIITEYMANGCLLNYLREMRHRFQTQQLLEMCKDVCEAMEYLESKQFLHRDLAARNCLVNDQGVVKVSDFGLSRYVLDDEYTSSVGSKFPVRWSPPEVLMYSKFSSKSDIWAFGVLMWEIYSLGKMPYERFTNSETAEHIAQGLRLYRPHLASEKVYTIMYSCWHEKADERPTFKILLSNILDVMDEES
Chain of ITK (Q08881 whole entry): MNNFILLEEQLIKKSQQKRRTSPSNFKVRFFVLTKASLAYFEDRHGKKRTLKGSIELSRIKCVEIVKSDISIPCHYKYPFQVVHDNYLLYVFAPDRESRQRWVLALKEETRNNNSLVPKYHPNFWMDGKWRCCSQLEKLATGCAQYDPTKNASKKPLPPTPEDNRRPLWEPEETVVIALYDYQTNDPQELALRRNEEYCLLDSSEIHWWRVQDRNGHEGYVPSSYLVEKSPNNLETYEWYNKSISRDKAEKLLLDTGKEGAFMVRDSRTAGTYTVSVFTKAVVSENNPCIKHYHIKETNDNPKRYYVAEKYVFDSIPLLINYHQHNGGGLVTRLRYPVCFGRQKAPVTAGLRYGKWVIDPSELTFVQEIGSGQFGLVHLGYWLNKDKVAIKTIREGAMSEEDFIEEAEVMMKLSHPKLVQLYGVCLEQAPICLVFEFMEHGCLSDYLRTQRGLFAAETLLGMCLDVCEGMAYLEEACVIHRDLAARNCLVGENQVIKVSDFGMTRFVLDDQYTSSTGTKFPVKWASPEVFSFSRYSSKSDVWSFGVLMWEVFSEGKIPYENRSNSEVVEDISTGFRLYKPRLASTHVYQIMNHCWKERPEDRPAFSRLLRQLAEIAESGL
Chain of EGFR-WT (P00533 668-1210): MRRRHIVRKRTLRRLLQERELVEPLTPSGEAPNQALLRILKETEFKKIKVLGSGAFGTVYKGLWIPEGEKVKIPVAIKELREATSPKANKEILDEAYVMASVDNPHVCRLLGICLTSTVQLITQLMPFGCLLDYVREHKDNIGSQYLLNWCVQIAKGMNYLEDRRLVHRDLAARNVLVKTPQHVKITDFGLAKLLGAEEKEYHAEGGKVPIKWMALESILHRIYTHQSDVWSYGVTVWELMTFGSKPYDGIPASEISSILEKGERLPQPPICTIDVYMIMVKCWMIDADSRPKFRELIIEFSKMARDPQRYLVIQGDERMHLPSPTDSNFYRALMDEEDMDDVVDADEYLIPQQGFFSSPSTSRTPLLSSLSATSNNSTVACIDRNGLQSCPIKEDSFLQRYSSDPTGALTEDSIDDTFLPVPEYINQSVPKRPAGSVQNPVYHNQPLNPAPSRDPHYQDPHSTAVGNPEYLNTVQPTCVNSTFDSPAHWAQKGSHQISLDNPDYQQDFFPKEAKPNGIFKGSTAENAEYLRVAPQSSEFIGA
Chain of BMX (P51813 whole entry): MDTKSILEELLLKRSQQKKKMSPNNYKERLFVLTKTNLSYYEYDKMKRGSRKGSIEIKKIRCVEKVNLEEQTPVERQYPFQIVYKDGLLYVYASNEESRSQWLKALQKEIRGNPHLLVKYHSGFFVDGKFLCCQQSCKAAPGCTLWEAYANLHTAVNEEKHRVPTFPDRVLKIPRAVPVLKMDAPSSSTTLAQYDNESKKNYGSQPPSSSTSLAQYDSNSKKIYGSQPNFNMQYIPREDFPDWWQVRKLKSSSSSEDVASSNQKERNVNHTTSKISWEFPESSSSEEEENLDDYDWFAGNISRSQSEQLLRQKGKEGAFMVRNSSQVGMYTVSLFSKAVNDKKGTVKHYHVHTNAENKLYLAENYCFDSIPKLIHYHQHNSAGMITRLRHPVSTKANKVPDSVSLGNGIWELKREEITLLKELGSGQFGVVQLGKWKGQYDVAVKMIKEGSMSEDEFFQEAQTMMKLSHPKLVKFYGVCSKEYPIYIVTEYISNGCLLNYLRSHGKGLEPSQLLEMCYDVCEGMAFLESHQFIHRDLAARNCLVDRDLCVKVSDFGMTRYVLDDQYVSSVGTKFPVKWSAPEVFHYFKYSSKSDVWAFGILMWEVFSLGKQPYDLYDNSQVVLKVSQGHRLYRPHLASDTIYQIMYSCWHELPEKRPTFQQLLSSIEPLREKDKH

Compound | IC50 (BTK) | covalent modification of TEC kinase (Cys449, peptide GCLLNFLR) by mass spectrometry (TEC kinase) | IC50 (ITK) | IC50 (BMX) | IC50 (EGFR-WT) | IC50 (EGFR-T790M/L858R)
C=CC(=O)Nc1cccc(Nc2nc(Nc3ccccc3)ncc2C)c1 [Compound I-7, N-(3-(5-methyl-2-(phenylamino)pyrimidin-4-ylamino)phenyl) acrylamide] | < 0.01 µM | reaction was complete; also recorded: covalent modification | < 0.01 µM | < 0.01 µM | < 0.01 µM | < 0.01 µM
Cc1cccc(Nc2nc(Nc3cccc(NC(=O)/C=C/CN(C)C)c3)ncc2F)c1 [Compound I-4, (E)-4-(dimethylamino)-N-(3-(5-fluoro-4-(m-tolylamino)pyrimidin-2-ylamino)phenyl)but-2-enamide] | 0.01 to 0.1 µM | reaction was complete; also recorded: covalent modification | 0.01 to 0.1 µM | < 0.01 µM | < 0.01 µM | < 0.01 µM
